Assays:
[1] = test system: FADD in complex with caspase 8; assay: FADD / caspase 8 co-immunoprecipitation; assay type: cell-based; details: following 3OC12 HSL treatment
Procedure: (§1) For FADD immunoprecipitation, 4 μg anti-mouse FADD pAb (Santa Cruz, H-181) were incubated with 100 μl protein A/G agarose for 2 hrs at RT. 3 million/ml purified CD4 T cells were stimulated with HSLs or left untreated. The cells were then collected and lysed with IP lysis buffer (50 mM HEPES pH 7.4, 150 mM NaCl, 1% NP-40, 1 mM EDTA, 1 mM PMSF, 1 mM NaF, 1 mM NaVO3 and protease inhibitor cocktails). The cell lysates were added into antibody-bead mixtures for 3 hrs at 4° C. Beads were then collected by low speed centrifugation (1000 g, 5 min) and washed 4 times with IP lysis buffer (300 mM NaCl added). After the last wash, pellets were suspended with 70 ul 2×SDS loading buffer and boiled for 5 min. For caspase 8 immunoprecipitation, 4 μg anti-Caspase 8 pAb (Santa Cruz, C-20) was incubated with 100 μl protein A/G agarose for 1 hr at RT. 3 million/ml H9 cells were treated with HSLs or left untreated. The samples were processed as in FADD IP. For cross-linking assay, CD4+ T cells isolated from C57BL/6 mice spleen or human THP-1 cells was stimulated with HSLs or left untreated, then cells were collected and cross-linked by 10 mM DTSSP at RT for 30 min and quenched with 1M Tris-HCl (pH7.5) for 15 min. […]

[2] = test system: TNFR1; assay: DTSSP cross-linking assay, TNFR1; assay type: cell-based; details: crosslinker DTSSP, non-reducing condition
Procedure: as §1

[3] = test system: monocytic RAW264.7; assay: Annexin V/PI apoptosis detection, RAW264.7; assay type: cell-based
Procedure: Cell apoptosis was detected with Annexin V/PI apoptosis detection Kit. Briefly, cells were stimulated with HSLs or left untreated. 6 hrs later, cells were collected and stained with Annexin VFITC and PI for 15 min at RT, then the apoptotic effect was measured by flow cytometry. OT-I or OT-II splenocytes were pulsed with specific peptides or PMA and ionomycin mixture with or without HSLs or TNF α plus cycloheximide. 24 hrs later, cells and supernatants were collected separately. For OT-I activation, cells were stained with CD69 and CD8. For OT-II activation, cells were stained with CD69 and CD4. Cell activation was measured by flow cytometry. All supernatants were detected for IL-2 secretion by ELISA.

[4] = test system: Fas; assay: DTSSP cross-linking assay, Fas; assay type: cell-based; details: crosslinker DTSSP, prolonged incubation
Procedure: as §1

[5] = Lipid binding assay; assay type: physicochemical; details: DOPC, DPPC, PE, cholesterol, sphingomyelin individually or in combination
Procedure: 1 mg/ml of each lipid species in chloroform was coated on round glass slides by evaporation.
Then the glass slices were incubated with 100 μM 3OC12 HSL in DMSO in PBS at 37° C. After the incubation, the glass slices were washed slightly with PBS for 4-5 times and lipids were dissolved with DMSO. The amount of 3OC12 HSL in each sample was measured by QS bioassay as described above.

[6] = test system: TNFR1; assay: Lipid raft isolation, TNFR1 in detergent resistant domains; assay type: cell-based; details: human and mouse T cells
[7] = test system: Iκbα; assay: Iκbα degradation in non-apoptotic Jurkat cells; assay type: cell-based
[8] = test system: RAW264.7 cells; assay: Phagocytosis assay; assay type: cell-based
Procedure: For Phagocytic assay, polystyrene beads were coated with BSA plus mouse anti-BSA Ab via commercial methods. Before experiment, RAW264.7 cells were cultured on clean glass slices in 24-hole plate with Opti-MEM. Cells were co-cultured with coated beads, centrifuged at 900 g, 4° C. for 5 min and cultured at 37° C. for 45 min. Then cells were fixed with 4% paraformaldehyde and stained with 488 nm anti-mouse fluorescent Ab for immunofluorescent imaging. For analysis, total number of beads on each cell was calculated under bright field, the number of beads which were not engulfed were calculated under fluorescent lighting.

[9] = test system: caspases 8 and 3; assay: Caspase 8 and 3 cleavage in CD4 T cells (Western blot), mouse; assay type: cell-based; details: mouse (FIG. 2d)
[10] = test system: ZAP70; assay: ZAP70 phosphorylation in live cells recovered from T cell culture; assay type: cell-based; details: live cells recovered from the culture

## CCCCCCCCCC(=O)CC(=O)N[C@H]1CCOC1=O [3OC12 HSL, N-(3-oxo-dodecanoyl) homoserine lactone]
[1]
  FADD association with caspase 8: in complex with caspase 8
[2]
  amount of band with approximate 3 times the molecular weight of TNFR1 monomer: rapidly increased
[3]
  sensitivity to 3OC12 HSL: sensitive
[4]
  Fas oligomerization: did not show a significant change
[5]
  retention by coated lipid components: only lipid components containing cholesterol, sphingomyelin and DOPC were able to efficiently retain
[6]
  TNFR1 associated with lipid rafts: reduced
[7]
  Iκbα degradation: degraded
[8]
  attachment of beads to cells: not affected
[8]; without 3OC12 HSL 4.6
  phagocytosis of antibody-coated latex beads: 2.6+/−0.2%
[9]
  caspase 8 and 3 cleavage: cleaved in a dose and time-dependent manner
[10]
  ZAP70 phosphorylation: minimally affected

Reference: patent US11583570B2, “Use of autoinducer-related pathway in inducing apoptosis and anti-infective therapy” (TSINGHUA UNIVERSITY, priority 2017, dated 2023)
